Results published in patent US20260042764A1, “COMPOSITIONS AND METHODS FOR INHIBITION OF KRAS” (TheRas, Inc., priority 2022, published 2026).

Assays:
[1] = biological target: T1, Avi-KRAS G12V (1-169) GppNHp/RAF1 RBD-3xFLAG (52-151) (Homo sapiens, UniProt P01116, G12V); test: Raf1-KRAS G12V-GppNHP disruption HTRF assay (Biological Example 1); type: binding
T1 construct: Avi-KRAS G12V (1-169)
Outline: (§1)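 HTRF PPI disruption; buffer 50 mM Tris pH 7.5, 100 mM NaCl, 5 mM MgCl2, 0.1% BSA, 0.01% Tween, 10% DMSO. Protein mix 1 h RT shaking, reagent mix 1 h RT shaking. Data as % activity vs DMSO (100%).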

[2] = biological target: T2, Avi-KRAS G12D (1-169) GppNHp/RAF1 RBD-3xFLAG (52-151) (Homo sapiens, UniProt P01116, G12D); test: Raf1-KRAS G12D-GppNHP disruption HTRF assay (Biological Example 1); type: binding
T2 construct: Avi-KRAS G12D (1-169)
Outline: as §1

GP2d cells (KRAS G12D) = test: Cell-based pERK HTRF assay in GP2d cell (Biological Example 2); settings: GP2d, GP2d (KRAS G12D) cells, pERK HTRF
Outline: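 HTRF read-out of pERK (excitation 320 nm, emission 615 nm) after lysates sat 4–24 h at room temperature with Eu cryptate and d2 antibodies.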

SW620 cells (KRAS G12V) = test: Cell-based pERK HTRF assay in SW620 cell (Biological Example 4); settings: Homo sapiens, SW-620, SW620 (KRAS G12V) cells, pERK HTRF
Outline: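 Read-out: HTRF pERK signal (excitation 320 nm, emission 615 nm) from lysates of SW620 cells after 4 h compound exposure. Dose range was 9 points, half-log steps from 1 μM, in 0.25% DMSO; antibody incubation ran 4–24 h at room temperature.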

[3] = biological target: T3, Avi-KRAS G12R (1-169) GppNHp/RAF1 RBD-3xFLAG (52-151) (Homo sapiens, UniProt P01116, G12R); test: Raf1-KRAS G12R-GppNHP disruption HTRF assay (Biological Example 1); type: binding
T3 construct: Avi-KRAS G12R (1-169)
Outline: as §1

[4] = biological target: T4, Avi-KRAS WT (1-169) GppNHp/RAF1 RBD-3xFLAG (52-151) (Homo sapiens, UniProt P01116); test: Raf1-KRAS WT-GppNHP disruption HTRF assay (Biological Example 1); type: binding
T4 construct: Avi-KRAS WT (1-169)
Outline: as §1

[5] = KRAS G12V, GppNHp-loaded, class symbols
[6] = KRAS G12D, GppNHp-loaded, class symbols
[7] = KRAS G12R, GppNHp-loaded, class symbols
[8] = KRAS WT, GppNHp-loaded, class symbols

T2 sequence (P01116 1-169 isoform P01116-2 G12D): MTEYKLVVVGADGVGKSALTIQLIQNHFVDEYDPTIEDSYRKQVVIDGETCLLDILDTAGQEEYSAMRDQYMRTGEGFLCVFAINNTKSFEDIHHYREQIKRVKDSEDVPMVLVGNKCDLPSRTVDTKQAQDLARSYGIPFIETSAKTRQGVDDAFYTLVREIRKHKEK
T1 sequence (P01116 1-169 isoform P01116-2 G12V): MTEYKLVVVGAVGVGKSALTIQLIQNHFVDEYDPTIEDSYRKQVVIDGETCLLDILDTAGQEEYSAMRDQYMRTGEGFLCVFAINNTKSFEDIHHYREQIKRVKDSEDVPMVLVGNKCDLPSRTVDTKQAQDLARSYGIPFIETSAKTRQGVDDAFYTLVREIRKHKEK
T3 sequence (P01116 1-169 isoform P01116-2 G12R): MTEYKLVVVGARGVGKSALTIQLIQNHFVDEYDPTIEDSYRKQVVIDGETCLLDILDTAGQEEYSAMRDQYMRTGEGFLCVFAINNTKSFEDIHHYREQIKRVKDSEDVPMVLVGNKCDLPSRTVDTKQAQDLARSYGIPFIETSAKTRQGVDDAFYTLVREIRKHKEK
T4 sequence (P01116 1-169 isoform P01116-2): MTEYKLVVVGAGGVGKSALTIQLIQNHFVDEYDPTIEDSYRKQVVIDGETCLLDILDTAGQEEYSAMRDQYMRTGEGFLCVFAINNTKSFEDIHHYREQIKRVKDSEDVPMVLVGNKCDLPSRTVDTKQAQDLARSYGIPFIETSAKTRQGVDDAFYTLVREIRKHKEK

| Compound | IC50 [1, 5] [µM] | IC50 [2, 6] [µM] | IC50 (GP2d cells (KRAS G12D); class symbols) [µM] | IC50 (SW620 cells (KRAS G12V); class symbols) [µM] | IC50 [3, 7] [µM] | IC50 [4, 8] [µM] | IC50 ([1]; KRAS G12V, GppNHp-loaded, Table 11) [µM] | IC50 ([2]; KRAS G12D, GppNHp-loaded, Table 11) [µM] | IC50 (GP2d cells (KRAS G12D)) [µM] | IC50 (SW620 cells (KRAS G12V)) [µM] | IC50 ([3]; KRAS G12R, GppNHp-loaded, Table 11) [µM] | IC50 ([4]; KRAS WT, GppNHp-loaded, Table 11) [µM] | IC50 ([1]; KRAS G12V-GppNHp/RAF1 RBD HTRF) [µM] | IC50 ([2]; KRAS G12D-GppNHp/RAF1 RBD HTRF) [µM] | IC50 ([3]; KRAS G12R-GppNHp/RAF1 RBD HTRF) [µM] | IC50 ([4]; KRAS WT-GppNHp/RAF1 RBD HTRF) [µM] |
| --- | --- | --- | --- | --- | --- | --- | --- | --- | --- | --- | --- | --- | --- | --- | --- | --- |
| N#Cc1c(N)sc2c(F)ccc(-c3c(C(F)(F)F)cc4c(N(C5CC5)[C@H]5CCN(C(=O)[C@@H]6CC6(F)F)C5)nc(OC[C@@]56CCCN5C[C@H](F)C6)nc4c3F)c12 (atropisomer, axis not shown) [Compound 779] | 0.1 to 1 | < 0.1 | < 0.1 | < 0.1 | 0.1 to 1 | 0.1 to 1 | – | – | – | – | – | – | – | – | – | – |
| N#Cc1c(N)sc2c(F)ccc(-c3c(C(F)(F)F)cc4c(N5CCN6C(=O)CCC6C5)nc(OCC56CCCN5CC(F)C6)nc4c3F)c12 (stereo not drawn) [Compound 412] | – | – | – | – | – | – | – | – | < 0.1 | < 0.1 | – | – | 0.1 to 1 | 0.1 to 1 | 0.1 to 1 | 0.1 to 1 |
| COC(=O)N1CC[C@H](N(c2nc(OC[C@@]34CCCN3C[C@H](F)C4)nc3c(F)c(-c4ccc(F)c5sc(N)c(C#N)c45)c(C(F)(F)F)cc23)C2CC2)C1 (atropisomer, axis not shown) [Compound 767] | 0.1 to 1 | < 0.1 | < 0.1 | < 0.1 | 0.1 to 1 | 0.1 to 1 | – | – | – | – | – | – | – | – | – | – |
| CCN(c1nc(OC[C@@]23CCCN2C[C@H](F)C3)nc2c(F)c(-c3ccc(F)c4sc(N)c(C#N)c34)c(C(F)(F)F)cc12)[C@@H]1CCN(C(=O)[C@@H](C)OC)[C@@H]1C (atropisomer, axis not shown) [Compound 807] | < 0.1 | < 0.1 | < 0.1 | < 0.1 | < 0.1 | < 0.1 | – | – | – | – | – | – | – | – | – | – |
| CCN(c1nc(OC[C@@]23CCCN2C[C@H](F)C3)nc2c(F)c(-c3ccc(F)c4sc(N)c(C#N)c34)c(C(F)(F)F)cc12)[C@H]1CCN(C(=O)OCCF)C1 (atropisomer, axis not shown) [Compound 687] | < 0.1 | < 0.1 | < 0.1 | < 0.1 | < 0.1 | < 0.1 | – | – | – | – | – | – | – | – | – | – |
| C[C@@H]1[C@H](N(C)c2nc(OC[C@]34C[C@@H](F)CN3CC3(CC3)C4)nc3c(F)c(-c4ccc(F)c5sc(N)c(C#N)c45)c(Cl)cc23)CCN1C(=O)C1CC1 [Compound 593] | 1 to 10 | 1 to 10 | 0.1 to 1 | 0.1 to 1 | 1 to 10 | 1 to 10 | – | – | – | – | – | – | – | – | – | – |

Second part, the molecule after the results:

| IC50 [1, 5] [µM] | IC50 [2, 6] [µM] | IC50 (GP2d cells (KRAS G12D); class symbols) [µM] | IC50 (SW620 cells (KRAS G12V); class symbols) [µM] | IC50 [3, 7] [µM] | IC50 [4, 8] [µM] | IC50 ([1]; KRAS G12V, GppNHp-loaded, Table 11) [µM] | IC50 ([2]; KRAS G12D, GppNHp-loaded, Table 11) [µM] | IC50 (GP2d cells (KRAS G12D)) [µM] | IC50 (SW620 cells (KRAS G12V)) [µM] | IC50 ([3]; KRAS G12R, GppNHp-loaded, Table 11) [µM] | IC50 ([4]; KRAS WT, GppNHp-loaded, Table 11) [µM] | IC50 ([1]; KRAS G12V-GppNHp/RAF1 RBD HTRF) [µM] | IC50 ([2]; KRAS G12D-GppNHp/RAF1 RBD HTRF) [µM] | IC50 ([3]; KRAS G12R-GppNHp/RAF1 RBD HTRF) [µM] | IC50 ([4]; KRAS WT-GppNHp/RAF1 RBD HTRF) [µM] | Compound |
| --- | --- | --- | --- | --- | --- | --- | --- | --- | --- | --- | --- | --- | --- | --- | --- | --- |
| – | – | – | – | – | – | 0.1 to 1 | 0.1 to 1 | < 0.1 | < 0.1 | 0.1 to 1 | 0.1 to 1 | – | – | – | – | CC(=O)N1C[C@@H](N(C)c2nc(OC[C@@]34CCCN3C[C@H](F)C4)nc3c(F)c(-c4ccc(F)c5sc(N)c(C#N)c45)c(C(F)(F)F)cc23)C[C@H]1C [Compound 277] |
| 0.1 to 1 | < 0.1 | < 0.1 | < 0.1 | < 0.1 | < 0.1 | – | – | – | – | – | – | – | – | – | – | CC[C@H](C)C(=O)N1CC[C@H](N(CC)c2nc(OC[C@@]34CCCN3C[C@H](F)C4)nc3c(F)c(-c4ccc(F)c5sc(N)c(C#N)c45)c(C(F)(F)F)cc23)C1 (atropisomer, axis not shown) [Compound 576] |
| – | – | – | – | – | – | – | – | < 0.1 | < 0.1 | – | – | 0.1 to 1 | 0.1 to 1 | 0.1 to 1 | 0.1 to 1 | CC(=O)N1CCC[C@@H](N(C)c2nc(OC[C@@]34CCCN3C[C@H](F)C4)nc3c(F)c(-c4ccc(F)c5sc(N)c(C#N)c45)c(C(F)(F)F)cc23)C1 [Compound 295] |
| < 0.1 | < 0.1 | < 0.1 | < 0.1 | < 0.1 | < 0.1 | – | – | – | – | – | – | – | – | – | – | C/C=C\C(=O)N1CC[C@H](N(CC)c2nc(OC[C@@]34CCCN3C[C@H](F)C4)nc3c(F)c(-c4ccc(F)c5sc(N)c(C#N)c45)c(C(F)(F)F)cc23)C1 (atropisomer, axis not shown) [Compound 677] |
| – | – | – | – | – | – | – | – | < 0.1 | < 0.1 | – | – | 0.1 to 1 | 0.1 to 1 | 0.1 to 1 | 0.1 to 1 | C[C@H]1C[C@H](N(C)c2nc(OC[C@@]34CCCN3C[C@H](F)C4)nc3c(F)c(-c4ccc(F)c5sc(N)c(C#N)c45)c(C(F)(F)F)cc23)CN1C(=O)C1CC1 [Compound 437] |
